According to the supplement of paper PMC11061612:

Assays:
A673 (Ewing's Sarcoma) = assay: Bliss excess, mean over the matrix (fraction); higher = more synergy
Outline: (§1)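 Cell lines in DMEM/F12 or RPMI with 10% FBS were plated in 1536-well plates, held 24 hours at 37°C, 5% CO2, then given two-drug dose matrices for 72 hours (DMSO typically 0.2%). Viability was read by CellTiter-Glo 2.0 luminescence and scaled as inhibition from 0 (vehicle wells) to 1 (blank wells). Combination Emax is the second-highest inhibition in the matrix; Bliss excess is observed combination effect minus expected EA + EB − EA·EB, EA and EB being single-agent effects.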

MPP-89 (Mesothelioma) = assay: as above
Outline: as §1

[1] = test system: SNU-449 (Hepatocellular Carcinoma); assay: as above
Outline: as §1

[2] = test system: Hs-746T (Gastric Carcinoma); assay: as above
Outline: as §1

[3] = test system: OV-56 (Ovarian Carcinoma); assay: as above
Outline: as §1

[4] = test system: HeLa (Cervical Carcinoma); assay: as above
Outline: as §1

[5] = test system: MHH-CALL-2 (B-Lymphoblastic Leukemia); assay: as above
Outline: as §1

[6] = test system: LCLC-97TM1 (Non-Small Cell Lung Carcinoma); assay: as above
Outline: as §1

[7] = test system: KMRC-20 (Kidney Carcinoma); assay: as above
Outline: as §1

[8] = test system: MHH-CALL-2 (B-Lymphoblastic Leukemia); assay: combination Emax (second highest fraction inhibited in the dose matrix, 72 h); higher = more inhibition; extreme values may be limits of the assay
Outline: as §1
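For Bliss excess, mean over the matrix in this document: after 72 h of two-drug dosing.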

| Structure (SMILES) | Bliss excess (A673 (Ewing's Sarcoma)) | Bliss excess (MPP-89 (Mesothelioma)) | Bliss excess [1] | Bliss excess [2] | Bliss excess [3] | Bliss excess [4] | Bliss excess [5] | Bliss excess [6] | Bliss excess [7] | combination Emax [8] |
| --- | --- | --- | --- | --- | --- | --- | --- | --- | --- | --- |
| CN(CCO)CC[C@H](CSc1ccccc1)Nc1ccc(S(=O)(=O)NC(=O)c2ccc(N3CCC([C@@H](O)c4ccccc4-c4ccc(Cl)cc4)CC3)cc2)cc1S(=O)(=O)C(F)(F)F [AZD4320] + CC(=O)O[C@H]1C(=O)[C@@]2(C)[C@H]([C@H](OC(=O)c3ccccc3)[C@]3(O)C[C@H](OC(=O)[C@H](O)[C@@H](NC(=O)c4ccccc4)c4ccccc4)C(C)=C1C3(C)C)[C@]1(OC(C)=O)CO[C@@H]1C[C@@H]2O [Paclitaxel] (first compound max 1 µM, 7x7, partner max 3 µM) | 0.0654 | 0.108 | -0.0162 | – | – | – | – | – | – | – |
| COc1nnc2ccc(N3CCC(c4ccc(OCCN5CCN(C)C(=O)[C@H]5C)cc4)CC3)nn12 [AZD5153] + CN(CC[C@H](CSC1=CC=CC=C1)NC2=C(C=C(C=C2)S(=O)(=O)NC(=O)C3=CC=C(C=C3)N4CCC(CC4)[C@H](C5=CC=CC=C5C6=CC=C(C=C6)Cl)O)S(=O)(=O)C(F)(F)F)CCO [AZD4320] (first compound max 1 µM, 7x7, partner max 1 µM) | – | – | – | 0.0125 | 0.015 | -0.033 | 0.0512 | -0.0034 | 0.0384 | 0.688 |
| Cc1cc2ncnn2cc1Nc1ncc2c(n1)n(C1CCOCC1)c(=O)n2C [AZD7648] + COc1cc([C@@H]2c3cc4c(cc3[C@@H](O[C@@H]3O[C@@H]5CO[C@@H](C)O[C@H]5[C@H](O)[C@H]3O)[C@H]3COC(=O)[C@H]23)OCO4)cc(OC)c1O [Etoposide] (first compound max 10 µM, 7x7, partner max 10 µM) | 0.111 | 0.0858 | 0.0282 | – | – | – | – | – | – | – |
| CC(=O)c1c(C)c2cnc(Nc3ccc(N4CCNCC4)cn3)nc2n(C2CCCC2)c1=O [Palbociclib] + CN(CC[C@H](CSC1=CC=CC=C1)NC2=C(C=C(C=C2)S(=O)(=O)NC(=O)C3=CC=C(C=C3)N4CCC(CC4)[C@H](C5=CC=CC=C5C6=CC=C(C=C6)Cl)O)S(=O)(=O)C(F)(F)F)CCO [AZD4320] (first compound max 10 µM, 7x7, partner max 1 µM) | – | – | – | -0.0386 | -0.062 | -0.0385 | -0.0428 | -0.0326 | -0.0504 | 0.436 |
| N#Cc1cnc(Nc2cc(NC[C@H]3CNCCO3)c(C(F)(F)F)cn2)cn1 [SRA737] + C=CCn1c(=O)c2cnc(Nc3ccc(N4CCN(C)CC4)cc3)nc2n1-c1cccc(C(C)(C)O)n1 [AZD1775] (first compound max 10 µM, partner max 1 µM) | 0.0914 | 0.041 | 0.0354 | – | – | – | – | – | – | – |
| N#Cc1cnc(Nc2cc(NC[C@H]3CNCCO3)c(C(F)(F)F)cn2)cn1 [SRA737] + CCc1c2c(nc3ccc(O)cc13)-c1cc3c(c(=O)n1C2)COC(=O)[C@]3(O)CC [SN-38] (first compound max 10 µM, 7x7, partner max 0.3 µM) | -0.0511 | 0.0191 | 0.0341 | – | – | – | – | – | – | – |
| N#Cc1cnc(Nc2cc(NC[C@H]3CNCCO3)c(C(F)(F)F)cn2)cn1 [SRA737] + Nc1ccn([C@@H]2O[C@H](CO)[C@@H](O)C2(F)F)c(=O)n1 [Gemcitabine] (first compound max 10 µM, 7x7, partner max 0.3 µM) | 0.0343 | 0.0014 | 0.0307 | – | – | – | – | – | – | – |
| N#Cc1cnc(Nc2cc(NC[C@H]3CNCCO3)c(C(F)(F)F)cn2)cn1 [SRA737] + O=c1[nH]cc(F)c(=O)[nH]1 [5-Fluorouracil] (first compound max 10 µM, 7x7, partner max 20 µM) | 0.0354 | 0.0355 | -0.0175 | – | – | – | – | – | – | – |
| C[C@@H](c1ccc2nccn2c1)n1nnc2ncc(-c3cnn(C)c3)nc21 [Savolitinib] + CN(CC[C@H](CSC1=CC=CC=C1)NC2=C(C=C(C=C2)S(=O)(=O)NC(=O)C3=CC=C(C=C3)N4CCC(CC4)[C@H](C5=CC=CC=C5C6=CC=C(C=C6)Cl)O)S(=O)(=O)C(F)(F)F)CCO [AZD4320] (first compound max 1 µM, 7x7, partner max 1 µM) | – | – | – | -0.0049 | -0.0078 | -0.0391 | -0.0252 | -0.0311 | -0.0048 | 0.454 |
